{"source": "patent US9486394B2", "about": "“Pharmaceutical foam” (STIEFEL WEST COAST, LLC, priority 2003, dated 2016)", "key": {"[1]": {"test": "Stability with different can linings (Example 2)", "type": "physicochemical", "conditions": "4 weeks", "experimental": "Low buffer levels at a pH of 4.5 or 6.5, including unbuffered pH 4.5, were tested in cans with either epoxy-phenolic, polyamide-imide (PAM), or Micoflex linings. Some of the PAM-lined cans were scratched internally to check for corrosion on bare aluminum. Cans were stored at 4° C., 40° C., and 50° C. for 4 weeks and then examined."}, "[2]": {"test": "Stability, citrate buffer pH, epoxy-phenolic lined cans (Example 1)", "conditions": "1 month", "quoted_text": "In this study, a citrate buffer solution was used to adjust the pH of the mixture to pH 4.5, pH 5.5, and pH 6.5 using four different buffer concentrations (i.e., 0, 0.1, 0.3, 0.5%) and two alternative emollients or humectants, i.e., propylene glycol and glycerin. The containers were stored at 50° C. for 1 month and then examined."}}, "data": [{"smiles": "CCC[C@@H]1C[C@@H](C(=O)N[C@@H]([C@H]2O[C@H](SC)[C@H](OP(=O)(O)O)[C@@H](O)[C@H]2O)[C@H](C)Cl)N(C)C1", "note": "[clindamycin phosphate]", "values": [{"measurement": "clindamycin phosphate stability in PAM-lined container", "setting": "[1]; FIG. 4", "result": "unexpectedly high"}, {"measurement": "degradation of clindamycin phosphate", "setting": "[1]; 40° C.", "result": "moderate degradation"}, {"measurement": "degradation of clindamycin phosphate", "setting": "[1]; 50° C.", "result": "relatively severe degradation"}, {"measurement": "clindamycin phosphate degradation at higher buffer levels", "setting": "[2]; citrate buffer 0.5%, 0.3% vs 0.1%, 0.0%, 50° C.", "result": "higher amount of clindamycin phosphate degradation"}, {"measurement": "stability of clindamycin phosphate as a function of pH", "setting": "[2]; pH 4.5, 5.5, 6.5, 50° C., FIG. 3", "result": "more stable at a lower pH level"}]}]}
